Source: patent US20240208912A1 (Mirati Therapeutics, Inc., priority 2021, published 2024)
Counter-ions that a name gives are not always drawn. Like-named read-outs stand apart in the source and are kept apart here.

How the values were obtained:
PRMT5/MEP50 complex = biological target: T1, PRMT5/MEP50 complex (Homo sapiens, UniProt O14744); experiment: PRMT5:MEP50 HotSpot Assay (full-length histone H2A substrate, plus and minus MTA); format: biochemical; details: IC50 + 2 μM MTA, in the presence of 2 μM MTA
T1 construct: purchased Reaction Biology Corporation
In short: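 Tritiated product on full-length recombinant H2A was counted by scintillation after the stopped reaction was captured on filter paper. Substrate is histone H2A; conditions include plus and minus MTA.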

[1] = test system: HCT116 homozygous MTAP knockout cells; experiment: Proliferation assay (CellTiter-Glo, 10 days) in HCT116 homozygous MTAP knockout cells; format: cell-based; details: CellTiter-Glo after 10 days of treatment, read-out: Proliferation IC50 (nM) HCT116 MTAP_KO
In short: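 CellTiter-Glo viability read on day 11 gives a 10-day IC50. Dosing began one day after seeding, with a 1:10 split into fresh drug-containing medium on day 6. Cells are HCT116 lacking both MTAP alleles via CRISPR/Cas9, run alongside the parental line.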

T1 sequence (O14744 2-637 limits assumed): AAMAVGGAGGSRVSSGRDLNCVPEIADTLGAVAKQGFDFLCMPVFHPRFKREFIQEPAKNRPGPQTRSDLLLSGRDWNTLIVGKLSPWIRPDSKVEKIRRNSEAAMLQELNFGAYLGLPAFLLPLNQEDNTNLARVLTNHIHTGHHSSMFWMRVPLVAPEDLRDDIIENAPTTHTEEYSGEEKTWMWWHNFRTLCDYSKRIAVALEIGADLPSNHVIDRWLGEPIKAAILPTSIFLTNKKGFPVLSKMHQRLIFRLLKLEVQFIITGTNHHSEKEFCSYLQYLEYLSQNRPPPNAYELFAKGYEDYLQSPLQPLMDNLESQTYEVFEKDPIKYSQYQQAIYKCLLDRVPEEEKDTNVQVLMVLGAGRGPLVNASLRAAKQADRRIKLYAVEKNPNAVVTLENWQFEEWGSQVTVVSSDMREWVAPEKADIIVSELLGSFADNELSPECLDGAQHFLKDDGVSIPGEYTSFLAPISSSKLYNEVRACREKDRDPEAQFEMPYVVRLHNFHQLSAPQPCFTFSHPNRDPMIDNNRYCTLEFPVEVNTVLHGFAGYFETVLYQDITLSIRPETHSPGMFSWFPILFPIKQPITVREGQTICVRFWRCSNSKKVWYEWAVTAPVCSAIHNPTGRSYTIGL
T1 sequence (Q9BQA1 2-342 partner limits assumed): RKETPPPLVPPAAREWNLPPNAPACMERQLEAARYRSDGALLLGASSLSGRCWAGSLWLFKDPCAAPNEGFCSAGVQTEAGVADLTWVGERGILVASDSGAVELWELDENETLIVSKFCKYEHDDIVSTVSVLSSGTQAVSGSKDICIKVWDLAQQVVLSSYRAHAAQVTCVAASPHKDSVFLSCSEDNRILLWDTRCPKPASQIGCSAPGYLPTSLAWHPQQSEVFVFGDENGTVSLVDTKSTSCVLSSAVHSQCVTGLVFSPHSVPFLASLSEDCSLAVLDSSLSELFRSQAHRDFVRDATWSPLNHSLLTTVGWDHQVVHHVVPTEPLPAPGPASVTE

| Compound | IC50 (PRMT5/MEP50 complex) [nM] | IC50 [1] [nM] | IC50 ([1]; Homo sapiens, HCT-116, 240 h) [nM] |
| --- | --- | --- | --- |
| Cn1ncc(-c2cc(O)c3c(=O)[nH]nc(CN)c3c2)c1-c1sc2ccccc2c1C#N [Example 15-6, 2-(4-(4-(aminomethyl)-8-hydroxy-1-oxo-1,2-dihydrophthalazin-6-yl)-1-methyl-1H-pyrazol-5-yl)benzo[b]thiophene-3-carbonitrile] | 235 |  | 138 |
| CCOc1cc(-c2cnn(C)c2-c2c(F)c(C)c3cc(Cl)cnc3c2C#N)cc2c(CN)n[nH]c(=O)c12 (single isomer, unassigned) [Example 16-99, (P)-7-(4-(4-(aminomethyl)-8-ethoxy-1-oxo-1,2-dihydrophthalazin-6-yl)-1-methyl-1H-pyrazol-5-yl)-3-chloro-6-fluoro-5-methylquinoline-8-carbonitrile] | 9870 |  | 10000 |
| Cc1cc(OC2CC2)c(C#N)c(-c2c(-c3cc(Cl)c4c(=O)[nH]nc(CN)c4c3)cnn2C)c1F (single isomer, unassigned) [Example 16-25, (P)-2-[4-[4-(aminomethyl)-8-chloro-1-oxo-2H-phthalazin-6-yl]-2-methyl-pyrazol-3-yl]-6-(cyclopropoxy)-3-fluoro-4-methyl-benzonitrile] | 964 | 664 |  |
| CC(C)n1ncc(-c2ccc3c(=O)[nH]nc(CN)c3c2)c1-c1sc2ccccc2c1C#N [Example 19-2, 2-(4-(4-(aminomethyl)-1-oxo-1,2-dihydrophthalazin-6-yl)-1-isopropyl-1H-pyrazol-5-yl)benzo[b]thiophene-3-carbonitrile] | 1650 |  | 4220 |
| CCOc1cc(-c2cnn(C)c2-c2c(F)ccc(OC3CC3)c2C#N)cc2c(CN)n[nH]c(=O)c12 (atropisomer, axis not shown; (M)) [Example 16-74, (M)-2-[4-[4-(aminomethyl)-8-ethoxy-1-oxo-2H-phthalazin-6-yl]-2-methyl-pyrazol-3-yl]-6-(cyclopropoxy)-3-fluoro-benzonitrile] | 346 | 158 |  |
| CCOc1cc(-c2cnn(C)c2-c2c(F)c(C)cc(OC3CC3)c2C#N)cc2c(CN)n[nH]c(=O)c12 (single isomer, unassigned) [Example 16-75, (P)-2-[4-[4-(aminomethyl)-8-ethoxy-1-oxo-2H-phthalazin-6-yl]-2-methyl-pyrazol-3-yl]-6-(cyclopropoxy)-3-fluoro-4-methyl-benzonitrile] | 5030 | 420 |  |
| Cn1ncc(-c2ccc3c(=O)[nH]nc(C4CCN4)c3c2)c1-c1sc2ccccc2c1C#N (centres unmarked) [Example 9-11, 2-(4-(4-(azetidin-2-yl)-1-oxo-1,2-dihydrophthalazin-6-yl)-1-methyl-1H-pyrazol-5-yl)benzo[b]thiophene-3-carbonitrile] | 1440 |  | 2370 |
| CCOc1cc(-c2cnn(C)c2-c2c(F)c(C)c3ccccc3c2C#N)cc2c(CN)n[nH]c(=O)c12 (single isomer, unassigned) [Example 16-82, (M)-2-[4-[4-(aminomethyl)-8-ethoxy-1-oxo-2H-phthalazin-6-yl]-2-methyl-pyrazol-3-yl]-3-fluoro-4-methyl-naphthalene-1-carbonitrile] | 1180 | 14 |  |
| Cn1ncc(-c2ccc3c(=O)[nH]nc(CN)c3c2)c1-c1sc2ccncc2c1C#N [Example 4-274, 2-[4-[4-(aminomethyl)-1-oxo-2H-phthalazin-6-yl]-2-methyl-pyrazol-3-yl]thieno[3,2-c]pyridine-3-carbonitrile] | 1070 |  | 3380 |
| Cn1ncc(-c2ccc3c(=O)[nH]c4c(c3c2)CCNC4)c1-c1sc2ccccc2c1C#N [Example 18-1, 2-(1-methyl-4-(6-oxo-1,2,3,4,5,6-hexahydrobenzo[c][1,7]naphthyridin-9-yl)-1H-pyrazol-5-yl)benzo[b]thiophene-3-carbonitrile] | > 10000 |  | 4140 |
| Cn1ncc(-c2ccc3c(=O)[nH]nc(CN)c3c2)c1-c1c(F)c(Cl)c2c(c1C#N)OCCC2 (single isomer, unassigned) [Example 16-39, (P)-7-(4-(4-(aminomethyl)-1-oxo-1,2-dihydrophthalazin-6-yl)-1-methyl-1H-pyrazol-5-yl)-5-chloro-6-fluorochroman-8-carbonitrile] | 366 | 517 |  |
| Cc1cc(-c2c(-c3ccc4c(=O)[nH]nc(CN)c4c3)cnn2C)n2c1CCCC2=O [Example 4-257, 4-(aminomethyl)-6-[1-methyl-5-(1-methyl-5-oxo-7,8-dihydro-6H-indolizin-3-yl)pyrazol-4-yl]-2H-phthalazin-1-one] | 547 |  | 618 |

Stronger by IC50 (PRMT5/MEP50 complex), values ahead:

| IC50 (PRMT5/MEP50 complex) [nM] | IC50 [1] [nM] | IC50 ([1]; Homo sapiens, HCT-116, 240 h) [nM] | Compound |
| --- | --- | --- | --- |
| 181 | 173 |  | Cn1ncc(-c2ccc3c(=O)[nH]nc(CN)c3c2)c1-c1c(F)cc2c(c1C#N)OCO2 (atropisomer, axis not shown; (M)) [Example 16-88, (M)-5-[4-[4-(aminomethyl)-1-oxo-2H-phthalazin-6-yl]-2-methyl-pyrazol-3-yl]-6-fluoro-1,3-benzodioxole-4-carbonitrile] |
| 102 | 216 |  | Cn1ncc(-c2ccc3c(=O)[nH]nc(CN)c3c2)c1-c1c(F)cc2c(c1C#N)OCCC2 (atropisomer, axis not shown; (P)) [Example 16-37, (P)-7-[4-[4-(aminomethyl)-1-oxo-2H-phthalazin-6-yl]-2-methyl-pyrazol-3-yl]-6-fluoro-chromane-8-carbonitrile] |
| 217 | 80 |  | Cn1ncc(-c2cc(Cl)c3c(=O)[nH]nc(CN)c3c2)c1-c1c(F)cc2ncc(Cl)cc2c1C#N (single isomer, unassigned) [Example 16-61, (P)-6-[4-[4-(aminomethyl)-8-chloro-1-oxo-2H-phthalazin-6-yl]-2-methyl-pyrazol-3-yl]-3-chloro-7-fluoro-quinoline-5-carbonitrile] |
| 212 |  | 136 | Cc1cnc2sc(-c3c(-c4ccc5c(=O)[nH]nc(CN)c5c4)cnn3C)c(C#N)c2c1 [Example 12-19, 2-[4-[4-(aminomethyl)-1-oxo-2H-phthalazin-6-yl]-2-methyl-pyrazol-3-yl]-5-methyl-thieno[2,3-b]pyridine-3-carbonitrile hydrochloride] |
| 36.4 | 9 |  | Cc1cc(-c2cnn(C)c2-c2c(F)cc3ncc(Cl)cc3c2C#N)cc2c(CN)n[nH]c(=O)c12 (single isomer, unassigned) [Example 16-50, (M)-6-[4-[4-(aminomethyl)-8-methyl-1-oxo-2H-phthalazin-6-yl]-2-methyl-pyrazol-3-yl]-3-chloro-7-fluoro-quinoline-5-carbonitrile] |
| 8.25 | 33 |  | CCOc1cc(-c2cnn(C)c2-c2c(F)c(Cl)c3ccccc3c2C#N)cc2c(CN)n[nH]c(=O)c12 (single isomer, unassigned) [Example 16-79, (P)-2-[4-[4-(aminomethyl)-8-ethoxy-1-oxo-2H-phthalazin-6-yl]-2-methyl-pyrazol-3-yl]-4-chloro-3-fluoro-naphthalene-1-carbonitrile] |
| 113 | 461 |  | COc1cc(F)c(-c2c(-c3ccc4c(=O)[nH]nc(CN)c4c3)cnn2C)c(C#N)c1OC1CC1 (atropisomer, axis not shown; (P)) [Example 16-72, (P)-2-[4-[4-(aminomethyl)-1-oxo-2H-phthalazin-6-yl]-2-methyl-pyrazol-3-yl]-6-(cyclopropoxy)-3-fluoro-5-methoxy-benzonitrile] |
| 222 |  | 198 | Cc1sc(-c2c(-c3ccc4c(=O)[nH]nc(CN)c4c3)cnn2C)c(C#N)c1OC1CC1 [Example 4-276, 2-(4-(4-(aminomethyl)-1-oxo-1,2-dihydrophthalazin-6-yl)-1-methyl-1H-pyrazol-5-yl)-4-cyclopropoxy-5-methylthiophene-3-carbonitrile] |
| 107 | 35 |  | C[C@@H]1C[C@H]1Oc1ccc(F)c(-c2c(-c3ccc4c(=O)[nH]nc(CN)c4c3)cnn2C)c1C#N (atropisomer, axis not shown; (M)) [Example 16-66, (M)-2-(4-(4-(aminomethyl)-1-oxo-1,2-dihydrophthalazin-6-yl)-1-methyl-1H-pyrazol-5-yl)-3-fluoro-6-((1R,2R)-2-methylcyclopropoxy)benzonitrile] |
| 111 | 292 |  | Cn1ncc(-c2ccc3c(=O)[nH]nc(CN)c3c2)c1-c1c(F)ccc(CC2CC2)c1C#N (single isomer, unassigned) [Example 16-29, (P)-2-(4-(4-(aminomethyl)-1-oxo-1,2-dihydrophthalazin-6-yl)-1-methyl-1H-pyrazol-5-yl)-6-(cyclopropylmethyl)-3-fluorobenzonitrile] |
| 142 | 50 |  | COc1cc(F)c(-c2c(-c3ccc4c(=O)[nH]nc(CN)c4c3)cnn2C)c(C#N)c1OC1CC1 (atropisomer, axis not shown; (M)) [Example 16-71, (M)-2-[4-[4-(aminomethyl)-1-oxo-2H-phthalazin-6-yl]-2-methyl-pyrazol-3-yl]-6-(cyclopropoxy)-3-fluoro-5-methoxy-benzonitrile] |
| 58.2 |  | 182 | Cn1ncc(-c2ccc3c(=O)[nH]nc(CN)c3c2)c1-c1sc2c(OCC(F)F)cccc2c1C#N [Example 4-269, 2-(4-(4-(aminomethyl)-1-oxo-1,2-dihydrophthalazin-6-yl)-1-methyl-1H-pyrazol-5-yl)-7-(2,2-difluoroethoxy)benzo[b]thiophene-3-carbonitrile] |
| 52.4 | 41 |  | C[C@H]1C[C@@H]1Oc1ccc(F)c(-c2c(-c3ccc4c(=O)[nH]nc(CN)c4c3)cnn2C)c1C#N (single isomer, unassigned) [Example 16-68] |
